From patent publication US20130136722A1, “Methods of Ex Vivo Expansion of Blood Progenitor Cells, and Generation of Composite Grafts” (The Board of Trustees of The University of Illinois, priority 2011, published 2013)
Several values for one entry are separate records, joined by “and”; a condition that tells them apart may be missing. Equal values may be shown once.

What was measured:
LINE-1 = assay: Global DNA methylation (LINE-1) by pyrosequencing; format: cell-based, human; settings: CD34+ cells at day 3 of culture; FIG. 6A
Protocol: DNA methylation analysis was performed by EpigenDx (Worcester, Mass.) using quantitative pyrosequencing and the PSQ-HS96 system according to standard procedures (Warren et al., 2010, Cell Stem Cell. 7: 618-630). Primers were developed for the CpG sites near the promoter area as detailed in Table 3. Briefly, genomic DNA was isolated from primary or CMA expanded enriched CD34^+ cells using the Blood and Cell Culture DNA kit (Qiagen, Valencia Calif.). Genomic DNA was bisulfite treated by an EZ Methylation Kit (Zymo Research, Irvine, Calif.), and biotinylated gene specific primers or long interspersed nucleotide element 1 (LINE-1) primers were used to amplify regions of interest for analysis as described (Bhatia et al., 1997, J Exp Med. 186: 619-624).
Global methylation of genomic DNA was quantified by assaying long interspersed nucleotide element 1 (LINE 1) methylation as a surrogate marker (Yang et al., 2004, Nucleic Acids Res. 32: e38). The degree of global methylation of CD34^+ cells prior to and following ex vivo culture in the presence or absence of CMAs (5azaD/TSA and VPA) was determined in these experiments. […] CD34^+ cells cultured in 5azaD/TSA and VPA had 55.4%±2.2% and 77.2%±2.0% methylation respectively at day 3 (FIG. 6A).

[1] = test system: colony-forming cells (CFC); assay: Colony-forming cell (CFC) assay of CMA expanded CB cells; format: cell-based, human; settings: for CFC PE (%) (Colony Forming Cell Plating Efficiency): mean ± SEM of three independent experiments
Protocol: Colony-forming cell (CFC) were assayed by plating 5×10^2 cells per dish in semisolid media and were counted after 14 days as described (Araki et al., 2009, Id.). The number of cobble stone area-forming cell (CAFC) was quantitated in primary and expanded CD34+ cells by plating in limiting dilution onto irradiated M2-10B4 stromal cells as described (Araki et al., 2009, Id.; Conneally et al., 1997, Proc. Natl. Acad. Sci. USA. 94: 9836-9841; Taswell, 1981, J. Immunol. 126: 1614-1619).
In order to determine the a correlation between expansion of CD34^+CD90^+ cells and their functional potential as pluripotent hematopoietic stem cells, in vitro functional assays were performed, including assessment of colony-forming cells (CFC), a short-term assay, and cobblestone-area forming cells (CAFC), a long-term assay.

[2] = test system: cord blood-derived CD34+CD90+ cells; assay: Ex vivo expansion culture of cord blood CD34+ cells with chromatin modifying agents, flow cytometry for CD34/CD90; format: cell-based, human
Description: Freshly collected human CB was obtained from the New York Blood Center (New York, N.Y.) according to Institutional Review Board guidelines. Low density CB cells (<1.077 g/ml) were obtained by density centrifugation on Ficoll-Paque PLUS (GE Healthcare Bio-Sciences AB, Uppsala, Sweden), from which CD34^+ cells were immunomagnetically isolated by the MACS CD34 progenitor isolation kit (Miltenyi Biotech, Inc., Auburn, Calif.) as described in Araki et al., 2009, Exp Hematol. 37: 1084-1095). The purity of isolated CD34^+ cells routinely ranged from 90-99%.
CD34^+ cell expansion culture with or without CMA was carried out as described (Araki et al., 2009, Id.; Araki et al. 2006, Exp Hematol. 34: 140-149; Araki et al, 2007, Blood 109: 3570-3578.). All other HDAC inhibitors including 1 mM VPA (Sigma), TSA (5 ng/mL), NA (5 mM) or 5 μM of Suberoylanilide hydroxamic acid (SAHA; BioVision, Inc. Mountain View, Calif.) was added twice at 0 hr and after changing media at 48 hrs of culture. HDAC inhibitors were added only once (48 hr) when used in combination with a DNMT inhibitor as described (Araki et al., 2009, Id.; Araki et al., 2006, Id.; Himburg et al., 2010, Nat. Med. 16: 475-482).
Flow cytometric analysis was carried out as described (Araki et al., 2009, Id.; Araki et al. 2006, Id.; Araki et al, 2007, Id.). All antibodies were purchased from BD Bioscience (San Jose, Calif.). All analyses were paired with the corresponding matched isotype control and at least 10,000 live cells were acquired for each analysis (CellQuest software, Becton Dickinson).
In order to compare the effects of various chromatin modifying agents (CMAs) on the degree of expansion of cord blood-derived, primitive subpopulation of CD34^+ cells, valproic acid (VPA), trichostatin A (TSA), nicotinic acid (NA), suberoylanilide hydroxamic acid (SAHA) or 5-aza-2′-deoxycytidine (5azaD) as single agents or in combination was tested in vitro. The results of fluorescence-activated cell sorting experiments performed on cord blood-derived CD34^+/CD90^+ cells treated with CMA agents is shown in FIG. 1A.

NOD/SCID mice = assay: NOD/SCID transplantation assay: in vivo hematopoietic reconstitution by expanded CB cells; design: species or system mouse
Protocol: Immunodeficient nonobese diabetic/ltsz-scid/scid (NOD/SCID) mice were purchased from Jackson Laboratories (Bar Harbor, Me.) and transplantation assays were performed as described (Araki et al., 2009, Id.; Araki et al., 2007, Id.; Taswell, 1981, Id.). Equal number of primary CD34^+ cells or the progeny of an equal initial number of CD34^+ cells following culture were injected per mouse intravenously. Mice were sacrificed 8 weeks after transplantation, and bone marrow (BM) cells from each mouse were analyzed by flow cytometry to detect multilineage human cell engraftment.
Furthermore, hematopoietic stem cell potency of CMA-treated cord blood cells was evaluated in vivo by assaying hematopoietic repopulation potential of CD34^+ cells expanded with various CMAs. In these experiments, non-obese diabetic/severely combined immunodeficient (NOD/SCID) mice were transplanted with primary CD34^+ cells or the equivalent starting number of CD34^+ cells expanded in culture media supplemented by cytokines alone or in combination with 5azaD/TSA, VPA or 5azaD/VPA. […] Cells from cultures expanded with cytokines and VPA were capable of human hematopoietic engraftment in 2 out of 7 mice with a barely detectable level of chimerism (0.11%, 0.14%) (FIG. 2C).

## CCCC(CCC)C(=O)O [VPA, valproic acid]
LINE-1
  mean LINE 1 methylation (four CpG sites): 77.2%
[1]; cytokines plus CMA, FIG. 2A
  fold expansion of primitive CFU-mix colonies: 13.3±4.7 fold
[1]
  CFC PE (%) (Colony Forming Cell Plating Efficiency): 15.27%
[1]; listed as VPA Alone
  CFC PE (%) (Colony Forming Cell Plating Efficiency): 15.27 ± 3.66 %
[2]; 9 days of culture, cytokines (SCF, Flt3-ligand, TPO, IL-3) plus CMA, FIG. 1A
  cells co-expressing CD34+ and CD90+: 42.2%
[2]; 9 days of culture, cytokines plus CMA, FIG. 1B
  fold expansion of CD34+CD90+ cells: 64.6±3.7 fold and 65 fold
[2]; mean ± SEM of three independent experiments
  CD34+CD90+ (%): 42.17 ± 13.45 %
NOD/SCID mice; Day 9 expanded CD34+ cells
  regenerative capacity (in vivo hematopoietic reconstitution function) of expanded CD34+ cells: possessing regenerative potential
NOD/SCID mice; FIG. 2D
  multilineage differentiation of expanded cells following transplantation: retained the ability to differentiate into both myeloid and lymphoid lineages
NOD/SCID mice; cells expanded with cytokines plus CMA, i.v., analysed 8 weeks after transplantation, FIG. 2C
  mice with human hematopoietic engraftment of mice transplanted: 2 out of 7
NOD/SCID mice; engrafted recipient mice, FIG. 2C
  human hematopoietic chimerism (human CD45+ cells in mouse bone marrow): 0.11% and 0.14%
